Source: patent publication US20150080305A1, “APPLICATION OF INITIAL DOSES OF LHRH ANALOGUES AND MAINTENANCE DOSES OF LHRH ANTAGONISTS FOR THE TREATMENT OF HORMONE-DEPENDENT CANCERS AND CORRESPONDING PHARMACEUTICAL KITS” (AETERNA ZENTARIS GmbH, priority 2006, published 2015)
Square brackets hold non-standard residues; d marks the D form. Peptide text beside a SMILES is read from it. dPhe(4-Cl) = N[C@H](Cc1ccc(Cl)cc1)C(=O)O; d2Nal = N[C@H](Cc1ccc2ccccc2c1)C(=O)O; dCit = NC(=O)NCCC[C@@H](N)C(=O)O; d3Pal = N[C@H](Cc1cccnc1)C(=O)O

What was measured:
PSA levels = PSA levels in prostate cancer patients under initial/maintenance dose regimen; format: in vivo, human; settings: for PSA levels decrease during first period: prostate cancer patients
Protocol: (§1) 130 mg ozarelix is given as a single monthly initial dose per i.m. injection every 4 weeks to patients suffering from prostate cancer for a first period of 3 months. […] Subsequently, patients are treated with single monthly maintenance doses of 30 mg ozarelix given per i.m. injection over a period of 6 months. […] The treatment scheme is then repeated continuously (chronic treatment).
(§2) 00 mg ozarelix is given as a single initial dose per i.m. injection once every 3 months to patients suffering from prostate cancer for a first period of 3 to 6 months. […] Subsequently, patients are treated with single monthly maintenance doses of 40 mg ozarelix given per i.m. injection over a period of 6 months. […] The treatment scheme is then repeated continuously (chronic treatment).
as §1, with “3.75” for “130”, “leuprorelin (leuprolide) are” for “ozarelix is”, “6” for “3”, “20” for “30”, “9” for “6”
as §2, with “11.25” for “00”, “leuprorelin (leuprolide) are” for “ozarelix is”, “three” for “3”, “3” for “3 to 6”, “50” for “40”, “3” for “6”

testosterone levels = experiment: Testosterone levels in prostate cancer patients under initial/maintenance dose regimen; format: in vivo, human; settings: for testosterone levels during first period: prostate cancer patients
Protocol: as §1, §2
as §1, with “3.75” for “130”, “leuprorelin (leuprolide) are” for “ozarelix is”, “6” for “3”, “20” for “30”, “9” for “6”
as §2, with “11.25” for “00”, “leuprorelin (leuprolide) are” for “ozarelix is”, “three” for “3”, “3” for “3 to 6”, “50” for “40”, “3” for “6”

hormone concentration = settings: volunteer tests; cited from earlier work
[1] = Example 3: 3.75 mg single monthly initial dose i.m. every 4 weeks, first period of 6 months
[2] = Example 4: 11.25 mg single initial dose i.m. once every three months, first period of 3 months
[3] = Example 1: 130 mg single monthly initial dose i.m. every 4 weeks, first period of 3 months
[4] = Example 1: single monthly maintenance doses of 30 mg i.m. over 6 months, after 130 mg ozarelix initial doses
[5] = Example 2: 00 mg single initial dose i.m. once every 3 months, first period of 3 to 6 months
[6] = Example 2: single monthly maintenance doses of 40 mg i.m. over 6 months, after ozarelix initial doses
[7] = Example 3: single monthly maintenance doses of 20 mg i.m. over 9 months, after 3.75 mg leuprorelin initial doses
[8] = Example 4: single monthly maintenance doses of 50 mg i.m. over 3 months, after 11.25 mg leuprorelin initial dose

CCNC(=O)[C@@H]1CCCN1C(=O)[C@H](CCCNC(=N)N)NC(=O)[C@H](CC(C)C)NC(=O)[C@@H](CC(C)C)NC(=O)[C@H](Cc1ccc(O)cc1)NC(=O)[C@H](CO)NC(=O)[C@H](Cc1c[nH]c2ccccc12)NC(=O)[C@H](Cc1c[nH]cn1)NC(=O)[C@@H]1CCC(=O)N1 [leuprorelin, reference compound]
PSA levels decrease during first period (PSA levels; [1]): up to 95%
PSA levels decrease during first period (PSA levels; [2]): up to 95%
testosterone levels during first period (testosterone levels; [1]): quickly reach castration level
testosterone levels during first period (testosterone levels; [2]): quickly reach castration level

ozarelix
PSA levels decrease during first period (PSA levels; [3]): up to 95%
PSA levels during second period (PSA levels; [4]): remain stably low
PSA levels decrease during first period (PSA levels; [5]): up to 95%
PSA levels during second period (PSA levels; [6]): remain stably low
PSA levels during second period (PSA levels; [7]): remain stably low
PSA levels during second period (PSA levels; [8]): remain stably low
testosterone levels during first period (testosterone levels; [3]): quickly reach castration level
testosterone levels during second period (testosterone levels; [4]): above 0.5 ng/mL
testosterone levels during first period (testosterone levels; [5]): quickly reach castration level
testosterone levels during second period (testosterone levels; [6]): above 0.5 ng/mL
testosterone levels during second period (testosterone levels; [7]): above 0.5 ng/mL
testosterone levels during second period (testosterone levels; [8]): above 0.5 ng/mL

CC(=O)N[C@H](Cc1ccc2ccccc2c1)C(=O)N[C@H](Cc1ccc(Cl)cc1)C(=O)N[C@H](Cc1cccnc1)C(=O)N[C@@H](CO)C(=O)N[C@@H](Cc1ccc(O)cc1)C(=O)N[C@H](CCCNC(N)=O)C(=O)N[C@@H](CC(C)C)C(=O)N[C@@H](CCCNC(=N)N)C(=O)N1CCC[C@H]1C(=O)N[C@H](C)C(N)=O [cetrorelix] (Ac-[d2Nal][dPhe(4-Cl)][d3Pal]SY[dCit]LRP[dA]-NH2)
dose necessary for complete suppression of the hormone concentration to castration level (hormone concentration): 10 mg daily
